These results are taken from article PMC12705620 (Frontiers in Pharmacology, 2025).

Assay [1] concerns HaCaT keratinocytes. Kind of assay: In vitro scratch wound assay. Type of assay: cell-based, human. Particulars: 1 µM peptide (TGF-β 20 ng/mL). Here is the method: Cell migration following injury was assessed using an in vitro scratch assay with the IncuCyte wound maker tool (Sartorius). HaCaT keratinocytes were seeded in 96-well ImageLock plates (Sartorius) at 3 × 10^5 cells/well (100 µL) in DMEM supplemented with 10% FBS and incubated at 37 °C, 5% CO2 for 48 h, with medium change at 24 h, until confluence. Uniform scratches were introduced using the wound maker tool according to the manufacturer’s instructions. After wounding, wells were washed twice with 100 µL PBS to remove cell debris. Cells were then treated with 1 µM peptides in serum-free DMEM, to focus specifically on cell migration from the wound edges. The absence of serum minimizes interference with peptide activity. Transforming growth factor-beta (TGF-β; human; 20 ng/mL; Sigma-Aldrich) and 5% dimethyl sulfoxide (DMSO; Sigma-Aldrich) were used as positive and negative controls, respectively. Additional controls included serum-free DMEM (no-treatment control) and 50% (v/v) acetonitrile in Milli-Q water as solvent control. Wound closure was monitored using the IncuCyte S3 live-cell imaging system (Sartorius) with bright-field microscopy. Images were captured every 6 h for up to 60 h. Image analysis was performed using ImageJ software (version 1.53t, NIH, USA) with the “Wound Healing” plugin, as described by Suarez Arnedo et al. ([Suarez-Arnedo et al., 2020]). Quantitative parameters included wound width (µm), percent wound closure, and migration rate (µm/hour).

The subject of assay [2] is S. aureus LUH14616 (MRSA). Kind of assay: Ex vivo human skin wound infection model. More on the design: species or system Staphylococcus aureus. Conditions: 0.5% (v/v) in 70% ethanol, positive control, 4 h, p < 0.001. An excerpt: Human skin from 3 donors was obtained via the Residual Tissue Biobank of the Red Cross Hospital (Beverwijk, Netherlands). The use of these coded, post-operative residual tissue samples was approved by patients through the informed opt-out-plus protocol of the Red Cross Hospital Skin ([Code-of-Conduct-for-Health-Research, 2022]) and processed for an ex vivo wound infection model as described ([Dijksteel et al., 2020]). The Wounded skin grafts were sectioned into approximately 1 cm^2 samples using a sterile scalpel and were decontaminated by immersion in 70% ethanol for 30 min, followed by three PBS washes. Samples were placed dermis-down and wound-side-up on stainless steel grids with central indentations, positioned in 12-well plates, and cultured at the air–liquid interface in DMEM at 37 °C and 5% CO2. To confine reagents to the wound area, a resin barrier (OpalDam; Ultradent) was applied to the wounded area and polymerized using a hand-held UV light (Valo X) for 10 s. The wounds were then topically infected with 10 µL of S. aureus LUH14616 suspension of 1 × 10^7 CFU/mL (final dose: 1 × 10^5 CFU/graft) in PBS for 1 h, followed by topical application of 10 µL of peptide solution for 4 h. Chlorhexidine (0.5% (v/v) in 70% ethanol; Entick B.V.) and PBS were used as positive and negative controls, respectively. After treatment, tissue samples were transferred to polypropylene vials containing 1 mL PBS supplemented with 0.025% (v/v) SPS and a 7 mm stainless steel bead. Homogenization was performed using a MagnaLyser System (Roche) with three 30-s cycles at 7,000 rpm, with 30 s of cooling on ice between cycles. Homogenates were 10-fold serially diluted in PBS, and 100 µL aliquots were plated on BA plates. CFUs were enumerated after overnight incubation at 37 °C.

Assay [3] concerns Staphylococcus aureus JAR060131. Type of assay: cell-based. Particulars: JAR060131, 18 h. The protocol: Bactericidal activity was assessed as previously described ([Breij et al., 2018]). Briefly, mid-logarithmic phase bacterial cultures were diluted in RPMI to 1 × 10^7 CFU/mL. For fungicidal assays, fungal cultures were prepared in RPMI supplemented with 1% glucose (Merck) and diluted to 2–5 × 10^5 CFU/mL. For each condition, 10 µL of the suspension was added to 90 µL of peptide-containing RPMI or RPMI supplemented with 50% (v/v) pooled human plasma (hereafter referred to as 50% plasma; final bacterial concentration 1 × 10^6 CFU/mL, final fungal concentration 2–5 × 10^4 CFU/mL. Human plasma from four healthy volunteers (Sanquin, Netherlands) was pooled, and stored at −20 °C until use. Peptides were tested similarly for fungicidal activity, after 18 h of incubation at 37 °C with shaking (120 rpm) under humidified conditions, bacterial and fungal survival was determined by plating 10 µL aliquots onto BA plates. Assays were performed in duplicate in round-bottom polypropylene microtiter plates (Costar) and repeated independently three times. Untreated controls included bacteria exposed to RPMI alone or RPMI with 50% plasma. Bactericidal and fungicidal activity was expressed as the lethal concentration 99.9% (LC99.9), defined as the lowest peptide concentration causing ≥99.9% reduction in numbers of CFU compared to the initial inoculum.

With TGF-β, the “Percentage of wound closure” value in assay [1] (60 h (legend: 64 h), versus no treatment) was “near-complete wound closure”. In addition, the Wound width reduction entry in assay [1] (serum-free DMEM, versus untreated control) is listed as “highest wound width reduction”. Also, the “Rate of cell migration” value in assay [1] (versus no treatment) is reported as “faster wound closure”. `[H]/N=C(\N/C(=N/[H])NCCCCCCNC(=N)NC(=N)Nc1ccc(Cl)cc1)Nc1ccc(Cl)cc1` [Chlorhexidine, reference compound]: in assay [2], the “Reduction of bacterial burden (CFU counts)” value is on record as “significantly reduced bacterial burden”.

For the compound `N=C(N)NCCC[C@H](NC(=O)[C@H](Cc1c[nH]c2ccccc12)NC(=O)[C@H](CCC(N)=O)NC(=O)[C@H](Cc1c[nH]c2ccccc12)NC(=O)[C@H](CCCNC(=N)N)NC(=O)[C@@H](N)CCCNC(=N)N)C(=O)NCC(CNC(=O)[C@H](CCCNC(=N)N)NC(=O)[C@H](Cc1c[nH]c2ccccc12)NC(=O)[C@H](CCC(N)=O)NC(=O)[C@H](Cc1c[nH]c2ccccc12)NC(=O)[C@H](CCCNC(=N)N)NC(=O)[C@@H](N)CCCNC(=N)N)OCC(=O)NCCCCCC(=O)N[C@@H](CSSC[C@H](NC(=O)CCCCCNC(=O)COC(CNC(=O)[C@H](CCCNC(=N)N)NC(=O)[C@H](Cc1c[nH]c2ccccc12)NC(=O)[C@H](CCC(N)=O)NC(=O)[C@H](Cc1c[nH]c2ccccc12)NC(=O)[C@H](CCCNC(=N)N)NC(=O)[C@@H](N)CCCNC(=N)N)CNC(=O)[C@H](CCCNC(=N)N)NC(=O)[C@H](Cc1c[nH]c2ccccc12)NC(=O)[C@H](CCC(N)=O)NC(=O)[C@H](Cc1c[nH]c2ccccc12)NC(=O)[C@H](CCCNC(=N)N)NC(=O)[C@@H](N)CCCNC(=N)N)C(N)=O)C(N)=O` (some centres unmarked) [LBT-2], the LC99.9 in assay [3] is reported as 0.47 µM.
